Source: patent publication US12005050B2, “Methods for preventing or treating H. pylori infection” (TENNOR THERAPEUTICS (SUZHOU) LIMITED, priority 2022, dated 2024)

How the values were obtained:
Helicobacter pylori = assay: H. pylori eradication by urea breath test (UBT) (Example 1); assay type: in vivo; conditions: for Patients with UBT negative results: N = 10
Description: 40 asymptomatic healthy patients that are positive for Helicobacter pylori infection were admitted to the trial. The 40 patients were randomly allocated to four groups at a ratio of 1:1:1:1.
Different therapies were administered to the patients of each group according to the schedule below: • Group A: • Compound I capsule 200 mg/time (2 capsules, 100 mg/capsule), twice per day (BID); rabeprazole sodium enteric-coated tablet 20 mg/time (1 tablet, 20 mg/tablet), twice per day (BID) • Group B: • Compound I capsule 400 mg/time (4 capsules, 100 mg/capsule), twice per day (BID); rabeprazole sodium enteric-coated tablet 20 mg/time (1 tablet, 20 mg/tablet), twice per day (BID) • Group C: • Compound I capsule 600 mg/time (6 capsules, 100 mg/capsule), twice per day (BID); rabeprazole sodium enteric-coated tablet 20 mg/time (1 tablet, 20 mg/tablet), twice per day (BID) • Group D: • Compound I capsule 400 mg/time (4 capsules, 100 mg/capsule), twice per day (BID); rabeprazole sodium enteric-coated tablet 20 mg/time (1 tablet, 20 mg/tablet), twice per day (BID); amoxicillin capsule 1 g/time (4 capsules, 0.25 g/capsule), twice per day (BID)
All patients were admitted to the clinical research center 1 day before dosing (D-1 Day), randomly allocated to respective groups and completed examinations for safety and baseline indicators. From day 1 to day 14, respective therapies/drugs were orally administered to the patients within 30 minutes after breakfast and dinner. On day 15, the last dose was administered orally to the patients within 30 minutes after breakfast. During the trial, each patient was dosed for 29 times in total. All patients left the hospital after completing a safety tolerance assessment on day 17 and returned to the clinical research center for urea breath test (UBT) follow-up examination between days 44 and 50 to evaluate the effect of Helicobacter pylori eradication.
The initial analysis of eradication effect was based on the full data set, which is defined as all patients who were randomly selected and received at least one dose of the trial combination therapy.
The eradication effects in each trial group were evaluated by UBT tests (negative or positive) conducted at the baseline time point, on day 8 after drug administration, day 16 after drug administration and day 44-50 of follow-up visit. Descriptive analysis was done using frequency (percentage), and comparison between groups was made. Fisher precision test was used to conduct between-group comparison analysis. As an aid to the analysis, the UBT values were listed as mean, standard deviation, median, minimum, maximum, and deviation from the baseline.

[1] = human, in vivo
Description: The 40 patients were randomly allocated to four groups at a ratio of 1:1:1:1. […] The detection linear range was as below: • Compound I: Lower Limit Of Quantitation (LLOQ): 1.00 ng/mL; Upper Limit Of Quantitation (ULOQ): 1,000 ng/mL • Rabeprazole sodium: LLOQ: 2.00 ng/mL; […] […] Pharmacokinetics Evaluation Plasma drug concentrations of various groups at different time points were determined, including: arithmetic mean, standard deviation, minimum, median, maximum, geometric mean, coefficient of variation, and coefficient of geometric variation. The pharmacokinetic parameters calculated from the first and last administration were descriptively analyzed according to various trial groups, including: arithmetic mean, standard deviation, minimum value, median, maximum value, geometric mean, coefficient of variation, geometric coefficient of variation, etc. In addition, the accumulation index AUC0-tau, ss(D15)/AUC0-tau (D1) was calculated. […]

Compound: CO[C@H]1/C=C/O[C@@]2(C)Oc3c(C)c(O)c4c(c3C2=O)C2=NC3(CCN(CCn5c([N+](=O)[O-])cnc5C)CC3)NC2=C(NC(=O)/C(C)=C\C=C\[C@H](C)[C@H](O)[C@@H](C)[C@@H](O)[C@@H](C)[C@H](OC(C)=O)[C@@H]1C)C4=O [Compound I, 4-Deoxy-3,4-[2-spiro-[1-[2-(2-methyl-5-nitro-imidazol-1-yl)ethyl]-piperidin-4-yl]]-(1H)-imidazo-(2,5-dihydro)rifamycin]
- Patients with UBT negative results (Helicobacter pylori; Day 8, Group A: Compound I 200 mg BID + rabeprazole sodium 20 mg BID): 7 (70.0) n(%)
- Patients with UBT negative results (Helicobacter pylori; Day 8, Group B: Compound I 400 mg BID + rabeprazole sodium 20 mg BID): 10 (100.0) n(%)
- Patients with UBT negative results (Helicobacter pylori; Day 8, Group C: Compound I 600 mg BID + rabeprazole sodium 20 mg BID): 8 (80.0) n(%)
- Patients with UBT negative results (Helicobacter pylori; Day 8, Group D: Compound I 400 mg BID + rabeprazole sodium 20 mg BID + amoxicillin 1 g BID): 7 (70.0) n(%)
- Patients with UBT negative results (Helicobacter pylori; Day 16, Group A: Compound I 200 mg BID + rabeprazole sodium 20 mg BID): 3 (30.0) n(%)
- Patients with UBT negative results (Helicobacter pylori; Day 16, Group B: Compound I 400 mg BID + rabeprazole sodium 20 mg BID): 5 (50.0) n(%)
- Patients with UBT negative results (Helicobacter pylori; Day 16, Group C: Compound I 600 mg BID + rabeprazole sodium 20 mg BID): 6 (60.0) n(%)
- Patients with UBT negative results (Helicobacter pylori; Day 16, Group D: Compound I 400 mg BID + rabeprazole sodium 20 mg BID + amoxicillin 1 g BID): 10 (100.0) n(%)
- Patients with UBT negative results (Helicobacter pylori; Follow up period (Day 44~50), Group A: Compound I 200 mg BID + rabeprazole sodium 20 mg BID): 0 (0.0) n(%)
- Patients with UBT negative results (Helicobacter pylori; Follow up period (Day 44~50), Group B: Compound I 400 mg BID + rabeprazole sodium 20 mg BID): 3 (30.0) n(%)
- Patients with UBT negative results (Helicobacter pylori; Follow up period (Day 44~50), Group C: Compound I 600 mg BID + rabeprazole sodium 20 mg BID): 4 (40.0) n(%)
- Patients with UBT negative results (Helicobacter pylori; Follow up period (Day 44~50), Group D: Compound I 400 mg BID + rabeprazole sodium 20 mg BID + amoxicillin 1 g BID): 8 (80.0) n(%)
- Eradication rate of H. pylori (Helicobacter pylori; Follow-up period (day 44 to day 50), Group D: Compound I 400 mg BID + rabeprazole sodium 20 mg BID + amoxicillin 1 g BID): 80%
- Effect of rabeprazole and amoxicillin on the pharmacokinetic profile of Compound I [1]: no significant effect
